These results are taken from PMC5112673, “A novel pyruvate kinase and its application in lactic acid production under oxygen deprivation in Corynebacterium glutamicum” (BMC Biotechnology, 2016).

Like-named read-outs stand apart in the source and are kept apart here.

The test has as its system T1, Pyk2.
T1 construct: full length, pET-28a N-terminal His-tag (removable by thrombin; tagged and cut similarly active), E. coli BL21(DE3), subunit 67,572 Da, homohexamer 430,881 Da by gel filtration
As to the kind of experiment: coupled L-lactate dehydrogenase / NADH assay, […] nm, allosteric sigmoidal fit. Type of test: biochemical, Corynebacterium glutamicum. Conditions: 5 mM MnSO4, 100 mM KCl, 100 mM Tris-HCl pH 7.4, 25°C, no effector, read-out: S 0.5.

Take `Nc1ncnc2c1ncn2[C@@H]1O[C@H](COP(=O)(O)OP(=O)(O)O)[C@@H](O)[C@H]1O` [ADP]: for the setting “5 mM PEP”, the Km worked out at 330 ± 30 µM.

As to `C=C(OP(=O)(O)O)C(=O)O` [PEP], the Km (2 mM ADP) was found to be 4580 ± 740 µM.
